By MIC is commonly meant the least concentration at which growth counts as inhibited.

In brackets after ≈: the same amount, converted by molar mass. Activity calls are given as the source filed them. The rule behind the calls is not given here.

14 compounds from ChEMBL document CHEMBL1153217, “Antitubercular potential of some semisynthetic analogues of phytol” (Bioorg Med Chem Lett, 2010) can be followed below.

Data set [1] relates to Mycobacterium tuberculosis. Description: Antitubercular activity against Mycobacterium tuberculosis H37Rv by BACTEC460 radiometric susceptibility assay. In kind it is functional.
Data set [2] relates to Mycobacterium tuberculosis. Nature of the data set: Antitubercular activity against Mycobacterium tuberculosis H37Rv at 500 ug/ml by BACTEC460 radiometric susceptibility assay. In kind it is functional, organism-based.
For data set [3], the system named is Mus musculus. Description: Toxicity in Swiss albino mouse assessed as body weight at 50 mg/kg, po (reference value: 23.56+/-1.547 g). In kind it is organism-based. Set-up: dose 50 mg/kg, route oral. The following applies: in vivo.
Data set [4] concerns Mus musculus. Nature of the data set: Toxicity in Swiss albino mouse assessed as total SGPT level 50 mg/kg, po (reference value: 8.13 +/- 0.79 U/L). In kind it is organism-based. Set-up: dose 50 mg/kg, route oral. Particulars: in vivo.
For data set [5], the system named is Mus musculus. Description: Toxicity in Swiss albino mouse assessed as total SGOT level 50 mg/kg, po (reference value: 8.13 +/- 0.79 U/L). In kind it is organism-based. Set-up: dose 50 mg/kg, route oral. Particulars: in vivo.
Data set [6] concerns Mus musculus. Description: Toxicity in Swiss albino mouse assessed as total serum triglyceride level 300 mg/kg, po (reference value: 72.43 +/- 8.40 mg/dl). In kind it is organism-based. The following applies: in vivo. Also on record: dose 300 mg/kg, route oral.
In data set [7] the test system is Mus musculus. Description: Toxicity in Swiss albino mouse assessed as total haemoglobin level 5 mg/kg, po (reference value: 7.54 +/- 1.05 g/dl). In kind it is organism-based. Also on record: dose 5 mg/kg, route oral. The following applies: in vivo.
The test system of data set [8] is Mus musculus. Description: Toxicity in Swiss albino mouse assessed as total RBC count 50 mg/kg, po (reference value: 6.24 +/- 0.51 millions/mm'3). In kind it is organism-based. The following applies: in vivo. Set-up: dose 50 mg/kg, route oral.
Data set [9] deals with Mus musculus. Description: Toxicity in Swiss albino mouse assessed as total serum creatinine level 300 mg/kg, po (reference value: 0.71 +/- 0.14 mg/dl). In kind it is organism-based. Also on record: dose 300 mg/kg, route oral. The following applies: in vivo.
For data set [10], the system named is Mus musculus. Description: Toxicity in Swiss albino mouse assessed as total WBC level 5 mg/kg, po (reference value: 10.71 +/- 2.47 thousand/mm'3). In kind it is organism-based. Set-up: dose 5 mg/kg, route oral. The following applies: in vivo.
Data set [11] relates to Mus musculus. Description: Toxicity in Swiss albino mouse assessed as total SGPT level 5 mg/kg, po (reference value: 8.13 +/- 0.79 U/L). In kind it is organism-based. Also on record: dose 5 mg/kg, route oral. Particulars: in vivo.
Data set [12] relates to Mus musculus. Description: Toxicity in Swiss albino mouse assessed as body weight at 5 mg/kg, po (reference value: 23.56+/-1.547 g). In kind it is organism-based. Particulars: in vivo. Set-up: dose 5 mg/kg, route oral.
Data set [13] concerns Mus musculus. Description: Toxicity in Swiss albino mouse assessed as total serum triglyceride level 50 mg/kg, po (reference value: 72.43 +/- 8.40 mg/dl). Set-up: dose 50 mg/kg, route oral. The following applies: in vivo. In kind it is organism-based.
Data set [14] concerns Mus musculus. Description: Toxicity in Swiss albino mouse assessed as total serum creatinine level 5 mg/kg, po (reference value: 0.71 +/- 0.14 mg/dl). In kind it is organism-based. Also on record: dose 5 mg/kg, route oral. The following applies: in vivo.
For data set [15], the system named is Mus musculus. Description: Toxicity in Swiss albino mouse assessed as total RBC count 5 mg/kg, po (reference value: 6.24 +/- 0.51 millions/mm'3). Set-up: dose 5 mg/kg, route oral. In kind it is organism-based. Particulars: in vivo.
In data set [16] the test system is Mus musculus. Description: Toxicity in Swiss albino mouse assessed as total serum total cholesterol level 50 mg/kg, po (reference value: 43.25 +/- 4.04 mg/dl). In kind it is organism-based. Also on record: dose 50 mg/kg, route oral. The following applies: in vivo.
Data set [17] relates to Mus musculus. Nature of the data set: Toxicity in Swiss albino mouse assessed as total RBC count 300 mg/kg, po (reference value: 6.24 +/- 0.51 millions/mm'3). Also on record: dose 300 mg/kg, route oral. The following applies: in vivo. In kind it is organism-based.
In data set [18] the test system is Mus musculus. Description: Toxicity in Swiss albino mouse assessed as total serum total cholesterol level 300 mg/kg, po (reference value: 43.25 +/- 4.04 mg/dl). Also on record: dose 300 mg/kg, route oral. Particulars: in vivo. In kind it is organism-based.
The test system of data set [19] is Mus musculus. Description: Toxicity in Swiss albino mouse assessed as total SGOT level 5 mg/kg, po (reference value: 8.13 +/- 0.79 U/L). Set-up: dose 5 mg/kg, route oral. Particulars: in vivo. In kind it is organism-based.
Data set [20] relates to Mus musculus. Description: Toxicity in Swiss albino mouse assessed as total SGOT level 300 mg/kg, po (reference value: 8.13 +/- 0.79 U/L). In kind it is organism-based. Set-up: dose 300 mg/kg, route oral. The following applies: in vivo.
Data set [21] deals with Mus musculus. Description: Toxicity in Swiss albino mouse assessed as total WBC level 300 mg/kg, po (reference value: 10.71 +/- 2.47 thousand/mm'3). Particulars: in vivo. In kind it is organism-based. Set-up: dose 300 mg/kg, route oral.
For data set [22], the system named is Mus musculus. Nature of the data set: Toxicity in Swiss albino mouse assessed as total serum creatinine level 50 mg/kg, po (reference value: 0.71 +/- 0.14 mg/dl). Set-up: dose 50 mg/kg, route oral. The following applies: in vivo. In kind it is organism-based.
The subject of data set [23] is Mus musculus. Description: Toxicity in Swiss albino mouse assessed as body weight at 300 mg/kg, po (reference value: 23.56+/-1.547 g). In kind it is organism-based. Also on record: dose 300 mg/kg, route oral. The following applies: in vivo.
In data set [24] the test system is Mus musculus. Description: Toxicity in Swiss albino mouse assessed as total haemoglobin level 50 mg/kg, po (reference value: 7.54 +/- 1.05 g/dl). In kind it is organism-based. Also on record: dose 50 mg/kg, route oral. Particulars: in vivo.
Data set [25] relates to Mus musculus. Description: Toxicity in Swiss albino mouse assessed as total haemoglobin level 300 mg/kg, po (reference value: 7.54 +/- 1.05 g/dl). Also on record: dose 300 mg/kg, route oral. Particulars: in vivo. In kind it is organism-based.
For data set [26], the system named is Mus musculus. Description: Toxicity in Swiss albino mouse assessed as total SGPT level 300 mg/kg, po (reference value: 8.13 +/- 0.79U/L). Set-up: dose 300 mg/kg, route oral. Particulars: in vivo. In kind it is organism-based.
The subject of data set [27] is Mus musculus. Description: Toxicity in Swiss albino mouse assessed as total WBC level 50 mg/kg, po (reference value: 10.71 +/- 2.47 thousand/mm'3). In kind it is organism-based. Set-up: dose 50 mg/kg, route oral. Particulars: in vivo.
The subject of data set [28] is Mus musculus. Nature of the data set: Toxicity in Swiss albino mouse assessed as total serum triglyceride level 5 mg/kg, po (reference value: 72.43 +/- 8.40 mg/dl). Particulars: in vivo. In kind it is organism-based. Set-up: dose 5 mg/kg, route oral.
Data set [29] concerns Mus musculus. Description: Toxicity in Swiss albino mouse assessed as total serum total cholesterol level 5 mg/kg, po (reference value: 43.25 +/- 4.04 mg/dl). In kind it is organism-based. Also on record: dose 5 mg/kg, route oral. Particulars: in vivo.

On to `C/C(=C\C=N\O)CCCC(C)CCCC(C)CCCC(C)C` (stereo unspecified), for which the MIC in [1] is 25 µg/mL (≈ 80.8 µM).

In [1], `C/C(=C\COC=O)CCCC(C)CCCC(C)CCCC(C)C` (stereo unspecified) came in with an MIC of 500 µg/mL (≈ 1540 µM).

Compound `C/C(=C\CO)CCCC(C)CCCC(C)CCCC(C)C` (stereo unspecified) had an MIC in data set [1] of 100 µg/mL (≈ 337 µM).

Compound `CCOC(=O)CO/N=C/C=C(\C)CCCC(C)CCCC(C)CCCC(C)C` (stereo unspecified) showed an MIC in data set [1] of 500 µg/mL (≈ 1260 µM).

For `C/C(=C\C=O)CCCC(C)CCCC(C)CCCC(C)C` (stereo unspecified), 50 µg/mL (≈ 170 µM) was the least that counted as inhibitory in [1] (MIC).

On to `C/C(=C\COC/C=C(\C)CCCC(C)CCCC(C)CCCC(C)C)CCCC(C)CCCC(C)CCCC(C)C` (stereo unspecified), for which, in data set [2], the MIC result is “inactive”.

For the compound `CN[C@@H]1[C@H](O[C@H]2[C@H](O[C@H]3[C@H](O)[C@@H](O)[C@H](N=C(N)N)[C@@H](O)[C@@H]3N=C(N)N)O[C@@H](C)[C@]2(O)C=O)O[C@@H](CO)[C@H](O)[C@H]1O` [STREPTOMYCIN], the lowest concentration to inhibit growth in data set [1] (MIC) was 2 µg/mL (≈ 3.44 µM).

`CC(C)CCCC(C)CCCC(C)CCCC1(C)OC1CO` (stereo unspecified): the MIC entry in data set [2] was “inactive”.

As for `CC(=O)OC/C=C(\C)CCCC(C)CCCC(C)CCCC(C)C` (stereo unspecified), in [2], the MIC entry is “inactive”.

As for `C/C(=C\CBr)CCCC(C)CCCC(C)CCCC(C)C` (stereo unspecified), the MIC result in data set [2] was “inactive”.

In the case of `CO[C@H]1/C=C/O[C@@]2(C)Oc3c(C)c(O)c4c(O)c(c(/C=N/N5CCN(C)CC5)c(O)c4c3C2=O)NC(=O)/C(C)=C\C=C\[C@H](C)[C@H](O)[C@@H](C)[C@@H](O)[C@@H](C)[C@H](OC(C)=O)[C@@H]1C` [RIFAMPIN], 2 µg/mL (≈ 2.43 µM) was the least that counted as inhibitory in [1] (MIC).

Consider `COc1cc(/C=C/C(O)=C/C(=O)/C=C/c2ccc(OC/C=C(\C)CCCC(C)CCCC(C)CCCC(C)C)cc2)ccc1OC/C=C(\C)CCCC(C)CCCC(C)CCCC(C)C` (stereo unspecified), for which, in data set [2], the MIC entry is “inactive”.

`C/C(=C\CN=[N+]=[N-])CCCC(C)CCCC(C)CCCC(C)C` (stereo unspecified): the MIC entry in data set [2] was “inactive”.

Take `CCOC(=O)/C=C/CO/N=C/C=C(\C)CCCC(C)CCCC(C)CCCC(C)C` (stereo unspecified): the Activity in [3] is 25.39 g; in [4], 10.06 U/L; in data set [5], 35.44 U/L; in data set [6] it was 68.95 mg/dL; in data set [7], 6.41 g/dL; in [8] it was 6580000 /mm3. In addition, the Activity in data set [9] is 1.2 mg/dL; in data set [10], 14450 /mm3; in [11], 11.15 U/L; in [12], 25.41 g; in [13], 71.9 mg/dL; in data set [14], 0.61 mg/dL. Further, the Activity in data set [15] is 5980000 /mm3; in data set [16], 54.91 mg/dL; in [17], 5140000 /mm3; in data set [18] it was 62.27 mg/dL; in data set [19] it was 28.03 U/L; in [20] it was 41.73 U/L. Moreover, the Activity is 14240 /mm3 in data set [21]; 0.59 mg/dL in data set [22]; 20.56 g in [23]; 10.09 g/dL in data set [24]; 5.55 g/dL in data set [25]; 11.36 U/L in data set [26]. Further, the Activity is 13460 /mm3 in data set [27], 84.31 mg/dL in data set [28] and 57.67 mg/dL in data set [29]. Moreover, inhibition of growth in data set [1] (MIC) required 15.6 µg/mL (≈ 37 µM).
